Measured values taken from patent US6949522B2, “β-2′- or 3′-halonucleosides” (Pharmasset, Inc., priority 2001, dated 2005).
Marks after values point to notes of the source that are not given here.

Key:
[1] = test system: mitochondrial cytochrome C oxidase subunit II (COXII) gene; type: cell-based, human; conditions: HepG2, 10 μM, 7 days
Source text: The Q-RT-PCR technology was also used to evaluate potential mitochondrial γ-DNA polymerase inhibition by the compounds of the present invention in relevant human cells. […] Since active nucleoside compounds in the triphosphate form lack a 3′-OH, thereby stopping virus replication by chain termination, there is a concern that these nucleoside analogues are also substrates for the human DNA polymerase γ, resulting in inhibition of mitochondrial DNA replication and subsequently toxic side effects (11, 19). In an attempt to provide direct quantifiable data on mitochondrial DNA levels intracellular, a Q-PCR technology was designed and relative quantification of COXII DNA levels were calculated using the comparative Ct method. […] Also, in agreement with previous observations, no changes in normalized mitochondrial DNA levels were observed after FIAU and D4T treatment (6, 8, 23).
(§1) Low passage number HepG2 cells, obtained from American Tissue Culture Collection (ATCC, Manassas, Va.) were seeded at 5,000 cells/well in collagen-coated 96-well plates. Test compounds were added to the media to obtain a final concentration of 10 μM. On culture day 7, cellular nucleic acids were prepared by using commercially available columns (RNeasy 96 kit, Qiagen). […] The mitochondrial cytochrome C oxidase subunit II (COXII) gene and the β-actin or rRNA gene were amplified from 5 μL with a multiplex Q-PCR protocol using the suitable primers and probes for both target and reference (designed using the Primer Express software, Applied Biosystems); • for COXII. • sense primer 5′-[…]-3′ (Sequence 7); • probe 5′-TET-[…]-TAMRA-3′ (Sequence 8); and • antisense probe 5′-[…]-3′ (Sequence 9); • for exon 3 of β-actin (GenBank E01094): • sense primer 5′-[…]-3′ (Sequence 10); • probe 5′-6FAM-[…]-TAMRA-3′ (Sequnece 11); and • antisense probe 5′-[…]-3′ (Sequence 12).
(§2) The rRNA gene primers and probes were purchased from Applied Biosystems. Standard curves using 1-log diluted total HepG2 DNA were linear over more than 5 logs. In addition, efficiencies of target (COXII DNA) and reference (β-actin DNA or rRNA) amplification were approximately equal, because the slope of the ΔCt line (Ct β-actin minus Ct mitochondrial) was less than 0.1 (not shown). Since equal amplification efficiencies were obtained for both genes, the comparative cycle threshold (Ct) method was used to investigate potential inhibition of the mitochondrial DNA polymerase γ. The comparative Ct method uses arithmetic formulas in which the amount of target (COXII gene) is normalized to an endogenous reference (β-actin gene or rRNA gene) and is relative to a calibrator (no drug control at day 7). The arithmetic formula for this approach is given by 2-ΔΔCt (User bulletin # 2, Applied Biosystems).
(§3) In order to study the consequences of possible inhibitory effects of these compounds on host DNA polymerases, nuclear and rnitochondrial DNA levels were quantified and compared to no-treatment controls. Cells were incubated for 7 days with 10 μM of each compound, followed by total nucleic acid extractions and multiplex Q-PCR of the rRNA gene and the mitochondrial COXII gene. Nucleic acids from cells exposed to the control compounds were also amplified in multiplex for mitDNA and the β-actin gene. The results are presented in Table 4 using the comparative Ct method.

[2] = test system: rRNA gene; type: cell-based, human; conditions: HepG2, 10 μM, 7 days
Experimental: Low passage number HepG2 cells, obtained from American Tissue Culture Collection (ATCC, Manassas, Va.) were seeded at 5,000 cells/well in collagen-coated 96-well plates. Test compounds were added to the media to obtain a final concentration of 10 μM. On culture day 7, cellular nucleic acids were prepared by using commercially available columns (RNeasy 96 kit, Qiagen).
The rRNA gene primers and probes were purchased from Applied Biosystems. […] The comparative Ct method uses arithmetic formulas in which the amount of target (COXII gene) is normalized to an endogenous reference (β-actin gene or rRNA gene) and is relative to a calibrator (no drug control at day 7). The arithmetic formula for this approach is given by 2-ΔΔCt (User bulletin # 2, Applied Biosystems).
as §3, with “gene.” for “gene. The results are presented in Table 4 using the comparative Ct method.”

[3] = test system: β-actin gene; type: cell-based, human; conditions: HepG2, 10 μM, 7 days
Experimental: as §1, §2, §3

[4] = test system: HIV-1xxBRU; conditions: cited from earlier work
[5] = test system: HIV-1M184V; conditions: cited from earlier work
[6] = target: T1, adenosine deaminase (EC.3.5.4.4. from calf intestinal mucosa) (Bos taurus, UniProt P56658); assay: in vitro
T1 sequence (P56658 1-363): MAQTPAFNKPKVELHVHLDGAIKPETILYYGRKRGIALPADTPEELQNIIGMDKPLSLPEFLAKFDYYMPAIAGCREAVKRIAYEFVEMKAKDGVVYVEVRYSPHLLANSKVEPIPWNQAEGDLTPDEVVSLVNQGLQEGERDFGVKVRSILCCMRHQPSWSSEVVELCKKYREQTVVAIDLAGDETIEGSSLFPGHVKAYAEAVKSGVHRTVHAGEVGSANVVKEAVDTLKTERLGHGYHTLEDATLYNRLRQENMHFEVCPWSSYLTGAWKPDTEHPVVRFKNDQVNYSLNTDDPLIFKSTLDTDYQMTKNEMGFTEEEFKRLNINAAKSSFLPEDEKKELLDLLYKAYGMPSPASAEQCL
Experimental: Assays were performed at 25° C. in phosphate buffer solution (pH 7.4) with substrate concentrations in the range of 15-100 μM and with 0.15 unit of adenosine deaminase (EC.3.5.4.4. from calf intestinal mucosa). The assays were monitored with a UV spectrometer at 265 nm. Initially, the qualitative assays were performed with D-β-2′-F-4′-S-d4A 24 (200 μM) in the presence of 0.24 unit of adenosine deaminase for 120 minutes to determine whether it is a substrate of this enzyme. The concentration (ct) of each substrate at a certain time (t) was calculated from the absorbance (At) at that time (t), where it was assumed that the total change of absorbance (A0−A∞) was directly related to the disappearance of the substrate.^35 Initial hydrolysis rates for each substrate concentration were measured manually through graphical curve fitting of the concentration versus time data for reaction of each substrate. From Lineweaver-Burke plot of these initial rates, Vmax (maximum velocity) and KM (Michaelis constant) were obtained for each substrate and kcat was also calculated with 0.15 unit of the enzyme (M.W. 33,000) in 2 mL of buffer solution.

[7] = test system: human PBM cells; assay: in vitro; type: cell-based
Experimental: The compounds were evaluated for their potential toxic effects on uninfected PHA-stimulated human PBM cells, in CEM (T-lymphoblastoid cell line obtained from American Type Culture Collection, Rockville, Md.) and Vero (African green monkey kidney) cells. PBM cells were obtained from whole blood of healthy seronegative donors (HIV-1 and hepatitis B virus) by single-step Ficoll-Hypaque discontinous gradient centrifugation. […] All of the cells were plated in 96-well cell culture plates containing ten-fold serial dilutions of the test drug. […] At the end of incubation, MTT tetrazolium dye solution (Cell titer 96®, Promega, Madison, Wis.) was added to each well and incubated overnight. The reaction was stopped with stop solubilization solution (Promega, Madison, Wis.). The plates were incubated for 5 hours to ensure that the formazan crystals were dissolved. The plates were read at a wavelength of 570 nm using an ELISA plate reader (Bio-tek instruments, Inc., Winooski, Vt., Model # EL 312e). […] Bookmark not defined.

[8] = test system: CEM (T-lymphoblastoid cell line); type: cell-based
Experimental: (§4) The compounds were evaluated for their potential toxic effects on uninfected PHA-stimulated human PBM cells, in CEM (T-lymphoblastoid cell line obtained from American Type Culture Collection, Rockville, Md.) and Vero (African green monkey kidney) cells. PBM cells were obtained from whole blood of healthy seronegative donors (HIV-1 and hepatitis B virus) by single-step Ficoll-Hypaque discontinous gradient centrifugation. Log phase Vero, CEM and PHA-stimulated human PBM cells were seeded at a density of 5×10^3, 2.5×10^3 and 5×10^4 cells/well respectively. All of the cells were plated in 96-well cell culture plates containing ten-fold serial dilutions of the test drug. The cultures were incubated for 3, 4 and 5 days for Vero, CEM, and PBM cells, respectively in a humidified 5% CO2-air at 37° C. At the end of incubation, MTT tetrazolium dye solution (Cell titer 96®, Promega, Madison, Wis.) was added to each well and incubated overnight. The reaction was stopped with stop solubilization solution (Promega, Madison, Wis.). The plates were incubated for 5 hours to ensure that the formazan crystals were dissolved. The plates were read at a wavelength of 570 nm using an ELISA plate reader (Bio-tek instruments, Inc., Winooski, Vt., Model # EL 312e). […] Bookmark not defined.

[9] = test system: Vero (African green monkey kidney) cells; assay: in vitro; type: cell-based
Experimental: as §4

[10] = test system: HIV-1LAI; assay: HIV assay in human PBM cells (RT activity of supernatant); type: cell-based; conditions: 5 days, read-out: Anti-HIV-1 Activity (EC50)
Source text: Human peripheral blood mononuclear (PBM) cells (obtained from Atlanta Red Cross) were isolated by Ficoll-Hypaque discontinuous gradient centrifugation from healthy seronegative donors. Cells were stimulated with phytohemagglutinin A (Difco, Sparks, Md.) for 2-3 days prior to use. HIV-1LAI obtained from the Centers for Disease Control and Prevention (Atlanta, Ga.) was used as the standard reference virus for the antiviral assays. The molecular infetious clones HIV-1xxBru and HIV-1M184Vpin were obtained from Dr. John Mellors (University of Pittsburgh). Infections were done in bulk for one hour, either with 100 TCID50/1×10^7 cells for a flask (T25) assay or with 200 TCID50/6×10^5 cells/well for a 24 well plate assay. Cells were added to a plate or flask containing a ten-fold serial dilution of the test compound. Assay medium was RPMI-1640 supplemented with heat inactivated 16% fetal bovine serum, 1.6 mM L-glutamine, 80 IU/ml penicillin, 80 μg/ml streptomycin, 0.0008% DEAE-Dextran, 0.045% sodium bicarbonate, and 26 IU/ml recombinant interleukin-2 (Chiron Corp, Emeryville, Calif.). AZT was used as a positive control for the assay. Untreated and uninfected PBM cells were grown in parallel at equivalent cell concentrations as controls. The cell cultures were maintained in a humidified 5% CO2-air at 37° C. for 5 days and supernatants were collected for reverse transcriptase (RT) activity.
Supernatants were centrifuged at 12,000 rpm for 2 hours to pellet the virus. The pellet was solubilized with vortexing in 100 μl virus solubilization buffer (VSB) containing 0.5% Triton X-100, 0.8 M NaCl, 0.5 mM phenylmethylsulfonyl fluoride, 20% glycerol, and 0.05 M Tris, pH 7.8. Ten μL of each sample were added to 75 μL RT reaction mixture (0.06 M Tris, pH 7.8, 0.012 M MgCl2, 0.006 M dithiothreitol, 0.006 mg/ml poly (rA)n, oligo (dT)12-18, 96 μg/ml dATP, and 1 μM of 0.08 mCi/ml ^3H-thymidine triphosphate (Moravek Biochemicals, Brea, Calif.) and incubated at 37° C. for 2 hours. The reaction was stopped by the addition of 100 μL 10% trichloroacetic acid containing 0.05% sodium pyrophosphate. The acid insoluble product was harvested onto filter paper using a Packard Harvester (Meriden, Conn.), and the RT activity was read on a Packard Direct Beta Counter (Meriden, Conn.). The RT results were expressed in counts per minute (CPM) per milliliter.

[11] = human PBM cells, Ref. 11(b) Lee et al.

## Nc1ccn(C2CSC(CO)O2)c(=O)n1 (single isomer, unassigned; (+)) [(+)-BCH-189, (+)-β-2′,3′-dideoxy-3′-thiacytidine]
[1]; COXII DNA normalized to rDNA, 2-ΔΔCt
  COXIINrDNA (range) relative to control: 0.20 (0.13-0.32)
[1]; COXII DNA normalized to β-actin DNA, 2-ΔΔCt
  COXIINβ-actin DNA (range) relative to control: 0.17 (0.14-0.22)
[1]
  Average ΔΔCt ± SD COXII-rDNA: 2.3 ± 0.66^d
  Average ΔΔCt ± SD COXII-β-actin: 2.53 ± 0.36^d
  effect on (normalized) mitochondrial COXII DNA levels, in words: reduce rnitochondrial COXII DNA levels
[2]
  Average ΔCt ± SD rDNA: −0.14 ± 0.61
  Average ΔΔCt ± SD rDNA-β-actin: 0.23 ± 0.39
[3]
  Average ΔCt ± SD β-actin DNA: −0.36 ± 0.31

## Nc1nc(=O)n([C@@H]2O[C@H](CO)C=C2F)cc1F [β-D-2′-F-d4FC]
[4]; EC50 instead of EC90 (footnote g), Ref. 23, read-out: Activity WT (xxBRU), anti-HIV activity in EC50
  EC50: 3.1 µM
[4]; [11]
  EC90: 9.9 µM
[5]; EC50 instead of EC90 (footnote g), Ref. 23, read-out: Activity M184V, anti-HIV activity in EC50
  EC50: 9.6 µM
[5]; Ref. 11(b) Lee et al.
  FI, fold increase (EC90 HIV-1M184V/EC90 HIV-1xxBRU): 3.5
[5]; fold increase in EC50 (footnote g), Ref. 23
  F1 (fold increase) in EC50: 3^g
[5]; [11]
  EC90: 34.7 µM

## Cc1cn([C@@H]2CC(F)(F)[C@H](CO)O2)c(=O)[nH]c1=O [Compound 26, 1-(2,3-Dideoxy-3,3-difluoro-β-L-ribofuranosyl)thymine]
other
  melting point: 140 °C (dec.)

## Cc1cn([C@@H]2C=C(F)[C@H](CO)O2)c(=O)[nH]c1=O [Compound 28, 1-(2,3-dideoxy-3-fluoro-β-L-glycero-pent-2-eno-furanosyl)thymine]
other
  melting point: 146 to 148 °C (dec.)

## Nc1ncnc2c1ncn2[C@@H]1S[C@H](CO)C=C1F [Compound D-27, (−)-9-[(1R,4S)-2,3-dideoxy-2,3-didehydro-2-fluoro-4-thio-β-D-ribofuranosyl]-adenine]
[6]; 25° C., pH 7.4, 0.15 unit of enzyme
  kcat: 0.94 s⁻¹
[6]; 25° C., phosphate buffer pH 7.4, substrate of ADA
  Km: 18.3 µM
[6]; bovine
  t½: 33 min
[7]
  IC50: > 100 µM
[8]
  IC50: > 100 µM
[9]
  IC50: > 100 µM
[10]
  EC50: 8.1 µM
